Laboratory results published in US11352340B2, “Pyridine and pyridimine compounds as PI3K-gamma inhibitors” (Incyte Corporation, priority 2016, dated 2022).
Counter-ions that a name gives are not always drawn. Like-named read-outs stand apart in the source and are kept apart here.

Legend:
[1] = biological target: PI3Kδ (p110δ/p85α) Recombinant Human Protein (Homo sapiens (Human), UniProt O00329); assay: PI3Kδ Scintillation Proximity Assay; assay type: biochemical; settings: read-out: PI3K-delta SPA IC50
PI3Kδ (p110δ/p85α) Recombinant Human Protein, sequence (O00329 whole entry): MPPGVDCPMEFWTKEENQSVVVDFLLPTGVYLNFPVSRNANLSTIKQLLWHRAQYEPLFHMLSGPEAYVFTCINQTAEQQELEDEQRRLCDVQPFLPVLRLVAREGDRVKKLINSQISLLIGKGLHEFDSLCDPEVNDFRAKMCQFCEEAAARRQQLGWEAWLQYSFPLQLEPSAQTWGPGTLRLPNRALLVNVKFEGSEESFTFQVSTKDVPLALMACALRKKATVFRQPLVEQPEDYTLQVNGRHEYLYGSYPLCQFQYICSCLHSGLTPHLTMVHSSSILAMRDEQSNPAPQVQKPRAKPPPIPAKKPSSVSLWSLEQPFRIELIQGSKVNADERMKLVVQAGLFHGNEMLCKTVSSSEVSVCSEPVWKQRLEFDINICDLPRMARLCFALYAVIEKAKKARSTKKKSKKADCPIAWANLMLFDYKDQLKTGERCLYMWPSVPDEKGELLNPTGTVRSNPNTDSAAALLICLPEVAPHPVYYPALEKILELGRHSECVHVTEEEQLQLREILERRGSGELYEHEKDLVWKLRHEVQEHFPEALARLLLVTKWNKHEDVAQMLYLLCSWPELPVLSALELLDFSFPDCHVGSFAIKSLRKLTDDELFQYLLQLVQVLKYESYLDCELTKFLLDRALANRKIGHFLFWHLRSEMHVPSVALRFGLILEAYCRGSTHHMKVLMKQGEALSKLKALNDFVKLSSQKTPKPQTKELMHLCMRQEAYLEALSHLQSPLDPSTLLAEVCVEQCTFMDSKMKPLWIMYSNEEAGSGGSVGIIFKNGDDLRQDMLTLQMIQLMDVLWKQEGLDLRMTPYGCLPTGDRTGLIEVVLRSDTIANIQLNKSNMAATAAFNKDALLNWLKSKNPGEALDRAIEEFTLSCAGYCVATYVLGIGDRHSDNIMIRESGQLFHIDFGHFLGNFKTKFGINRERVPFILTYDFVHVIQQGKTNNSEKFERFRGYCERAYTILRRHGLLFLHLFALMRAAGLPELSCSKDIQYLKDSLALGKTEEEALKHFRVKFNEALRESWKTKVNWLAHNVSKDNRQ
PI3Kδ (p110δ/p85α) Recombinant Human Protein, sequence (P27986 whole entry partner): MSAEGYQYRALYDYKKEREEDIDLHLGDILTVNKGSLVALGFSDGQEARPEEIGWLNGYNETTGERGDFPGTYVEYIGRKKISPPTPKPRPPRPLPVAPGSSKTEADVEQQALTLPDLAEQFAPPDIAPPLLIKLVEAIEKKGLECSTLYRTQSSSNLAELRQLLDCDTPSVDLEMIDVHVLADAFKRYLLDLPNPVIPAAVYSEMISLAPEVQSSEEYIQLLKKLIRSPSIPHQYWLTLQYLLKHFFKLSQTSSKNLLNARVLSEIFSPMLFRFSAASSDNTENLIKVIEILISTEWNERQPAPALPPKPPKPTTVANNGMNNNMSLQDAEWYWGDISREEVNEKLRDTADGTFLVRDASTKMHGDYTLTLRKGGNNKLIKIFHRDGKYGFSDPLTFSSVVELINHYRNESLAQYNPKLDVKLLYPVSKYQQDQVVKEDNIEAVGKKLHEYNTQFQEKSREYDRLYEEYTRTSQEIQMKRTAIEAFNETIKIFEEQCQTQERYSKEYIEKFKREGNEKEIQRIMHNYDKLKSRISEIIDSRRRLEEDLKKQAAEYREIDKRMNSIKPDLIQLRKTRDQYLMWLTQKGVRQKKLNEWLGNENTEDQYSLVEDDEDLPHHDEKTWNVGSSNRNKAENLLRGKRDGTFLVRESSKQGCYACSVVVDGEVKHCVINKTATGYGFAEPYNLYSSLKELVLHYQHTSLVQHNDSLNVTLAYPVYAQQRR
Outline: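 Kinase reaction run at room temperature in 20 mM MOPS pH 6.7, 10 mM MgCl2, 5 mM DTT, 0.03% CHAPS with 20 μM PIP2, 2 μM ATP plus [γ-33P]ATP, 3.4 nM enzyme, 2% DMSO; 120 min. Quenched with WGA SPA beads/EDTA, counted by scintillation; IC50 from % solvent-control activity vs log concentration.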

[2] = biological target: PI3Kγ (p110γ) Recombinant Human Protein (Homo sapiens (Human), UniProt P48736); assay: PI3K-γ Scintillation Proximity Assay; assay type: biochemical; settings: read-out: PI3K-gamma SPA IC50
PI3Kγ (p110γ) Recombinant Human Protein, sequence (P48736 whole entry): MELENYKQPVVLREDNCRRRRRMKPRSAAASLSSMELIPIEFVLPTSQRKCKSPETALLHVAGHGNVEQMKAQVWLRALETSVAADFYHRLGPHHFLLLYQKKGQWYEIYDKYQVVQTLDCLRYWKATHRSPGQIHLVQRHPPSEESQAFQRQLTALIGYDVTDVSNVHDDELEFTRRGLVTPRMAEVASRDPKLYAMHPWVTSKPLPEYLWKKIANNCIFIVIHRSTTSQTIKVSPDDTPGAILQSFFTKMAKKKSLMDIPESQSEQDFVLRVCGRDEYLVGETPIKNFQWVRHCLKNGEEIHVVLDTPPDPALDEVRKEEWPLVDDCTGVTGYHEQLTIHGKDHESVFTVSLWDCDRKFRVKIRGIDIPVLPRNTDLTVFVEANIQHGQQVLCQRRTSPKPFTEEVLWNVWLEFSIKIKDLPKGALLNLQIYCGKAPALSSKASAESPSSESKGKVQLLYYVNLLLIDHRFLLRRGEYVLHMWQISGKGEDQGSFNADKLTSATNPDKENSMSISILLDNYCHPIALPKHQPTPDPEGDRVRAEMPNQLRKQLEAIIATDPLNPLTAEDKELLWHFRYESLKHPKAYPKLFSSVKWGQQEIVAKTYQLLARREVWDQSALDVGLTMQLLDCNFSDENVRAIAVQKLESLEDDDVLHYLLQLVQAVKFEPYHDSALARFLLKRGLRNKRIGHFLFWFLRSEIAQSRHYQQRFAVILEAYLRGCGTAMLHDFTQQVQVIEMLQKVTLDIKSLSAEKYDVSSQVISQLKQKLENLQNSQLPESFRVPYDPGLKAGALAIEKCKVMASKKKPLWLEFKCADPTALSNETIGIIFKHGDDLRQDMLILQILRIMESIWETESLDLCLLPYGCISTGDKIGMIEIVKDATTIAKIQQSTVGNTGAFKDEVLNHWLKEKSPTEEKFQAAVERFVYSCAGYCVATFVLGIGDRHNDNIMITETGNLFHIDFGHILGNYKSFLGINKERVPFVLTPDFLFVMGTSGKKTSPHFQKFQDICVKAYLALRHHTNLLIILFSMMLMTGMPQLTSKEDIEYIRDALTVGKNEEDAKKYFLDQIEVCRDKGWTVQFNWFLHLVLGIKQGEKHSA
Outline: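 Recombinant human p110γ (13 nM) with 20 μM PIP2 and 2 μM ATP plus 0.5 μCi [γ-33P]ATP in 20 mM MOPS pH 6.7, 10 mM MgCl2, 5 mM DTT, 0.03% CHAPS, 2% DMSO, 120 min at room temperature. Product captured on WGA SPA beads and counted; IC50 fitted from % of solvent control versus log concentration.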

[3] = test system: Phosphorylated Ribosomal Protein S6 (RPS6) in THP-1 cells; assay: THP-1 RPS6 ELISA Assay; assay type: cell-based, Human; settings: MCP-1 stimulated, phospho-RPS6 ELISA, read-out: THP p-RPS6 ELISA IC50
Outline: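 Serum-starved THP-1 cells (2×10^5/well, RPMI) preincubated with compound 2 h at 37° C, then stimulated with 10 nM MCP-1 for 15 min. Lysates assayed by phospho-RPS6 ELISA, absorbance 450 nm (540 nm correction); IC50 from percent inhibition versus log concentration.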

| Structure (SMILES) | IC50 [1] [nM] | IC50 [2] [nM] | IC50 ([3]; Homo sapiens) [nM] | IC50 [3] [nM] |
| --- | --- | --- | --- | --- |
| Cc1nc(-c2cc(-c3cncc(C(=O)N4CCC(c5cnccn5)C4)c3)ccn2)[nH]c1C (stereo not drawn) [Example 197, 2′-(4,5-Dimethyl-1H-imidazol-2-yl)-5-[(3-pyrazin-2-ylpyrrolidin-1-yl)carbonyl]-3,4′-bipyridine trifluoroacetate salt] | ≤ 50 | ≤ 100 | 300 to 1000 | – |
| CCN(C)C(=O)c1cncc(-c2ccnc(-c3nc(C)c(C)[nH]3)c2)c1 [Example 198, 2′-(4,5-Dimethyl-1H-imidazol-2-yl)-N-ethyl-N-methyl-3,4′-bipyridine-5-carboxamide trifluoroacetate salt] | ≤ 50 | ≤ 50 | 300 to 1000 | – |
| COC1CN(C(=O)c2cncc(-c3ccnc(-c4nc(C)c(C)[nH]4)c3)c2)C1 [Example 199, 2′-(4,5-Dimethyl-1H-imidazol-2-yl)-5-[(3-methoxyazetidin-1-yl)carbonyl]-3,4′-bipyridine] | ≤ 50 | ≤ 50 | ≤ 300 | – |
| Cc1nc(-c2cc(-c3cncc(C(=O)N(C)CCO)c3)ccn2)[nH]c1C [Example 201, 2′-(4,5-Dimethyl-1H-imidazol-2-yl)-N-(2-hydroxyethyl)-N-methyl-3,4′-bipyridine-5-carboxamide trifluoroacetate salt] | ≤ 500 | ≤ 50 | 300 to 1000 | – |
| Cc1nc(-c2cc(-c3cncc(C(=O)NCC4CC4)c3)ccn2)[nH]c1C [Example 202, N-(Cyclopropylmethyl)-2′-(4,5-dimethyl-1H-imidazol-2-yl)-3,4′-bipyridine-5-carboxamide trifluoroacetate salt] | ≤ 100 | ≤ 100 | 300 to 1000 | – |
| Cc1nc(-c2cc(-c3cncc(C(=O)N(C)CC#N)c3)ccn2)[nH]c1C [Example 203, N-(Cyanomethyl)-2′-(4,5-dimethyl-1H-imidazol-2-yl)-N-methyl-3,4′-bipyridine-5-carboxamide] | ≤ 100 | ≤ 50 | 300 to 1000 | – |
| Cc1nc(-c2cc(-c3cncc(C(=O)N(C)CC4(CO)CC4)c3)ccn2)[nH]c1C [Example 205, 2′-(4,5-Dimethyl-1H-imidazol-2-yl)-N-{[1-(hydroxymethyl)cyclopropyl]methyl}-N-methyl-3,4′-bipyridine-5-carboxamide trifluoroacetate salt] | ≤ 100 | ≤ 50 | 300 to 1000 | – |
| Cc1nc(-c2cc(-c3cncc(C(=O)NCC4CCC4)c3)ccn2)[nH]c1C [Example 206, N-(Cyclobutylmethyl)-2′-(4,5-dimethyl-1H-imidazol-2-yl)-3,4′-bipyridine-5-carboxamide trifluoroacetate salt] | ≤ 100 | ≤ 100 | 1000 to 5000 | – |
| Cc1nc(-c2cc(-c3cncc(C(=O)NCC4CCCC4)c3)ccn2)[nH]c1C [Example 207, N-(Cyclopentylmethyl)-2′-(4,5-dimethyl-1H-imidazol-2-yl)-3,4′-bipyridine-5-carboxamide trifluoroacetate salt] | ≤ 500 | ≤ 50 | 1000 to 5000 | – |
| Cc1nc(-c2cc(-c3cncc(C(=O)NC(C)(C)C)c3)ccn2)[nH]c1C [Example 208, N-(tert-Butyl)-2′-(4,5-dimethyl-1H-imidazol-2-yl)-3,4′-bipyridine-5-carboxamide trifluoroacetate salt] | ≤ 100 | ≤ 50 | 1000 to 5000 | – |
| CCC1CCN(C(=O)c2cncc(-c3ccnc(-c4nc(C)c(C)[nH]4)c3)c2)C1 (stereo not drawn) [Example 211, 2′-(4,5-Dimethyl-1H-imidazol-2-yl)-5-[(3-ethylpyrrolidin-1-yl)carbonyl]-3,4′-bipyridine trifluoroacetate salt] | ≤ 50 | ≤ 50 | ≤ 300 | – |
| Cc1nc(-c2cc(-c3cncc(C(=O)N4CCC5(CC5)C4)c3)ccn2)[nH]c1C [Example 212, 5-(5-Azaspiro[2.4]hept-5-ylcarbonyl)-2′-(4,5-dimethyl-1H-imidazol-2-yl)-3,4′-bipyridine trifluoroacetate salt] | ≤ 50 | ≤ 50 | ≤ 300 | – |
| CO[C@H]1CCN(C(=O)c2cncc(-c3ccnc(-c4nc(C)c(C)[nH]4)c3)c2)C1 [Example 212B, 2′-(4,5-Dimethyl-1H-imidazol-2-yl)-5-{[(3S)-3-methoxypyrrolidin-1-yl]carbonyl}-3,4′-bipyridine trifluoroacetate salt] | ≤ 100 | ≤ 50 | 300 to 1000 | – |
| Cc1nc(-c2cc(C3=CCCN(S(=O)(=O)c4ccccc4)C3)ccn2)[nH]c1C [Example 214, 2′-(4,5-Dimethyl-1H-imidazol-2-yl)-1-(phenylsulfonyl)-1,2,5,6-tetrahydro-3,4′-bipyridine Trifluoroacetate Salt] | ≤ 500 | ≤ 50 | > 5000 | – |
| Cc1nc(-c2cc(C3=CCCN(S(=O)(=O)c4ccc(Cl)cc4)C3)ccn2)[nH]c1C [Example 221, 4-(1-(4-Chlorophenylsulfonyl)-1,2,5,6-tetrahydropyridin-3-yl)-2-(4,5-dimethyl-1H-imidazol-2-yl)pyridine trifluoroacetate salt] | ≤ 500 | ≤ 100 | > 5000 | – |
| Cc1nc(-c2cc(-c3cncc(N4CC[C@@H](O)C4)c3)ccn2)[nH]c1C [Example 231, (3R)-1-[2′-(4,5-Dimethyl-1H-imidazol-2-yl)-3,4′-bipyridin-5-yl]pyrrolidin-3-ol] | ≤ 100 | ≤ 50 | 300 to 1000 | – |
| Cc1nc(-c2cc(-c3cncc(N4CC[C@H](O)C4)c3)ccn2)[nH]c1C [Example 232, (3S)-1-[2′-(4,5-Dimethyl-1H-imidazol-2-yl)-3,4′-bipyridin-5-yl]pyrrolidin-3-ol] | ≤ 500 | ≤ 100 | 300 to 1000 | – |
| Cc1nc(-c2cc(-c3cncc(Nc4ccccc4)c3)ccn2)[nH]c1C [Example 233, 2′-(4,5-Dimethyl-1H-imidazol-2-yl)-N-phenyl-3,4′-bipyridin-5-amine] | ≤ 500 | ≤ 50 | 1000 to 5000 | – |
| Cc1nc(-c2cc(-c3cncc(C4=CCN(S(C)(=O)=O)C4)c3)ccn2)[nH]c1C [Example 237, 2′-(4,5-Dimethyl-1H-imidazol-2-yl)-5-[1-(methylsulfonyl)-2,5-dihydro-1H-pyrrol-3-yl]-3,4′-bipyridine] | ≤ 50 | ≤ 50 | ≤ 300 | – |
| CCOC(=O)c1nc(-c2cc(-c3cncc(S(C)(=O)=O)c3)ccn2)[nH]c1C [Example 241, Ethyl 5-methyl-2-[5-(methylsulfonyl)-3,4′-bipyridin-2′-yl]-1H-imidazole-4-carboxylate] | ≤ 50 | ≤ 100 | 300 to 1000 | – |
| Cc1[nH]c(-c2cc(-c3cncc(S(C)(=O)=O)c3)ccn2)nc1C(=O)NC1CCCC1 [Example 243, N-Cyclopentyl-5-methyl-2-[5-(methylsulfonyl)-3,4′-bipyridin-2′-yl]-1H-imidazole-4-carboxamide] | ≤ 50 | ≤ 50 | ≤ 300 | – |
| Cc1[nH]c(-c2cc(-c3cncc(S(C)(=O)=O)c3)ccn2)nc1C(=O)N1CCOCC1 [Example 244, 2′-[5-Methyl-4-(morpholin-4-ylcarbony1)-1H-imidazol-2-yl]-5-(methylsulfony1)-3,4′-bipyridine] | ≤ 50 | ≤ 100 | – | > 5000 |
| Cc1[nH]c(-c2cc(-c3cncc(S(C)(=O)=O)c3)ccn2)nc1C(=O)N1CC[C@@H](O)C1 [Example 245] | ≤ 50 | ≤ 50 | – | > 5000 |
| Cc1[nH]c(-c2cc(-c3cncc(S(C)(=O)=O)c3)ccn2)nc1C(=O)N1CC(O)C1 [Example 247, l-({5-Methyl-2-[5-(methylsulfonyl)-3,4′-bipyridin-2′-yl]-1H-imidazol-4-yl}carbonyl)azetidin-3-ol] | ≤ 50 | ≤ 50 | – | > 5000 |
| Cc1[nH]c(-c2cc(-c3cncc(S(C)(=O)=O)c3)ccn2)nc1C(=O)N1CC(C#N)C1 [Example 248, 1-({5-Methyl-2-[5-(methylsulfonyl)-3,4′-bipyridin-2′-yl]-lH-imidazol-4-yl}carbonyl)azetidine-3-carbonitrile] | ≤ 50 | ≤ 50 | – | 1000 to 5000 |
| Cc1[nH]c(-c2cc(-c3cncc(S(C)(=O)=O)c3)ccn2)nc1C(N)=O [Example 249, 5-Methyl-2-[5-(methylsulfonyl)-3,4′-bipyridin-2′-yl]-1H-imidazole-4-carboxamide trifluoroacetate salt] | ≤ 50 | ≤ 50 | 1000 to 5000 | – |
| CNC(=O)c1nc(-c2cc(-c3cncc(S(C)(=O)=O)c3)ccn2)[nH]c1C [Example 250, N,5-Dimethyl-2-[5-(methylsulfonyl)-3,4′-bipyridin-2′-yl]-lH-imidazole-4-carboxamide trifluoroacetate salt] | ≤ 50 | ≤ 50 | – | 300 to 1000 |
